Results published in patent US20120196901A1, “TERTIARY AMIDE OREXIN RECEPTOR ANTAGONISTS” (Merck Sharp & Dohme Corp., priority 2009, published 2012).

Biological target: T1, OX2R (Homo sapiens, UniProt O43614)
T1 construct: expressed in transfected cells; host or cells: CHO cells (membranes)
T1 sequence (O43614 1-444): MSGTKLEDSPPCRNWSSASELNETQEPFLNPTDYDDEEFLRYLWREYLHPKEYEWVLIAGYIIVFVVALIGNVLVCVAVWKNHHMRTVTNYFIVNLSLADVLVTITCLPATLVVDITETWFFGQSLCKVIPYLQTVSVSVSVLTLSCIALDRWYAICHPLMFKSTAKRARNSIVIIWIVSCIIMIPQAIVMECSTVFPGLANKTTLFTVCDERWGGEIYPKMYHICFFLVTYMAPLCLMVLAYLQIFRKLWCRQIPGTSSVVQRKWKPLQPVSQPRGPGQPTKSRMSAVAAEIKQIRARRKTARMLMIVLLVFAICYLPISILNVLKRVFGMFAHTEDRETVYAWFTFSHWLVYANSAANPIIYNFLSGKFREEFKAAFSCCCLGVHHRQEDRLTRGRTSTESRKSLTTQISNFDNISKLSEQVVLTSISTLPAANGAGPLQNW
Test: radioligand binding assay, membranes prepared from CHO cells expressing the OX2 receptor
Protocol: The utility of the compounds in accordance with the present invention as orexin receptor OX1R and/or OX2R antagonists may be readily determined without undue experimentation by methodology well known in the art, including the “FLIPR Ca^2+ Flux Assay” (Okumura et al., Biochem, Biophys. Res. Comm. 280:976-981, 2001). In a typical experiment the OX1 and OX2 receptor antagonistic activity of the compounds of the present invention was determined in accordance with the following experimental method. […] Within the Fluorescent Imaging Plate Reader (FLIPR, Molecular Devices), test compounds are added to the plate in a volume of 25 ul, incubated for 5 min and finally 25 ul of agonist is added. Fluorescence is measured for each well at 1 second intervals for 5 minutes and the height of each fluorescence peak is compared to the height of the fluorescence peak induced by 70 pM Ala-6,12 orexin-A with buffer in place of antagonist. For each antagonist, […] value (the concentration of compound needed to inhibit 50% of the agonist response) is determined. Alternatively, compound potency can be assessed by a radioligand binding assay (described in Bergman et. al. Bioorg. Med. Chem. Lett. 2008, 18, 1425-1430) in which the inhibition constant (ki) is determined in membranes prepared from CHO cells expressing either the OX1 or OX2 receptor. […]

SMILES | Ki
COc1ccc(CCN(C(=O)c2cccc(C)n2)C(C)CCc2ccccc2)nc1OC (centres unmarked) [Cmp 2-3, N-[2-(5,6-Dimethoxy-2-pyridinyl)ethyl]-6-methyl-N-(1-methyl-3-phenylpropyl)-2-pyridinecarboxamide] | 0.27 nM
COc1cccc(C(=O)N(CCc2ccc(OC)c(OC)n2)C(C)CCc2ccccc2)n1 (centres unmarked) [Cmp 2-13, N-[2-(5,6-dimethoxypyridin-2-yl)ethyl]-6-methoxy-N-(4-phenylbutan-2-yl)pyridine-2-carboxamide] | 0.14 nM
